Measured values: PubChem BioAssay (NCI)
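Test compounds were applied to cells in 96-well plates for 48 hours at 5 doses. Abbreviation: GI50, concentration required for 50% inhibition of growth. TGI: total growth inhibition.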

Assays:
Experiment in all cases: growth of human tumour cells (NCI), 48 h
[1] = tested on: 786-0 renal
[2] = tested on: BT-549 breast
[3] = tested on: CAKI-1 renal
[4] = tested on: CCRF-CEM leukemia
[5] = tested on: HCT-116 colon
[6] = tested on: HCT-15 colon
[7] = tested on: HOP-62 NSCLC
[8] = tested on: HOP-92 NSCLC
[9] = tested on: HS 578T breast
[10] = tested on: HT29 colon
[11] = tested on: MOLT-4 leukemia
[12] = tested on: NCI/ADR-RES ovarian
[13] = tested on: PC-3 prostate
[14] = tested on: SN12C renal
[15] = tested on: SR leukemia
[16] = tested on: SW-620 colon
[17] = tested on: T-47D breast
[18] = tested on: TK-10 renal
[19] = tested on: UACC-257 melanoma
[20] = tested on: UACC-62 melanoma
[21] = tested on: A498 renal
[22] = tested on: A549 NSCLC
[23] = tested on: ACHN renal
[24] = tested on: COLO 205 colon
[25] = tested on: DU-145 prostate
[26] = tested on: EKVX NSCLC
[27] = tested on: HCC-2998 colon
[28] = tested on: IGROV1 ovarian
[29] = tested on: K-562 leukemia
[30] = tested on: KM12 colon
[31] = tested on: LOX IMVI melanoma
[32] = tested on: M14 melanoma
[33] = tested on: MALME-3M melanoma
[34] = tested on: MCF7 breast
[35] = tested on: MDA-MB-231 breast
[36] = tested on: MDA-MB-435
[37] = tested on: NCI-H226 lung
[38] = tested on: NCI-H23 lung
[39] = tested on: NCI-H460 lung
[40] = tested on: NCI-H522 lung
[41] = tested on: OVCAR-3 ovarian
[42] = tested on: OVCAR-4 ovarian
[43] = tested on: OVCAR-5 ovarian
[44] = tested on: OVCAR-8 ovarian
[45] = tested on: RPMI-8226 leukemia
[46] = tested on: RXF 393 renal
[47] = tested on: SF-268 CNS
[48] = tested on: SF-295 CNS
[49] = tested on: SF-539 CNS
[50] = tested on: SK-MEL-2 melanoma
[51] = tested on: SK-MEL-28 melanoma
[52] = tested on: SK-MEL-5 melanoma
[53] = tested on: SK-OV-3 ovarian
[54] = tested on: SNB-19 CNS
[55] = tested on: SNB-75 CNS
[56] = tested on: U251 CNS
[57] = tested on: UO-31 renal

CN=C(N)N/N=C(\C)c1ccc2c(c1)Cc1cc(/C(C)=N/NC(N)=NC)ccc1-2
GI50 [1]: 0.752 µM
TGI [1]: > 100 µM
GI50 [2]: 1.96 µM
TGI [2]: 5.62 µM
GI50 [3]: 2.07 µM
TGI [3]: 5.37 µM
GI50 [4]: 0.444 µM
TGI [4]: > 100 µM
GI50 [5]: 2.36 µM
TGI [5]: > 100 µM
GI50 [6]: 2.04 µM
TGI [6]: > 100 µM
GI50 [7]: 0.668 µM
TGI [7]: > 100 µM
GI50 [8]: 1.33 µM
TGI [8]: 6.15 µM
GI50 [9]: 0.725 µM
TGI [9]: 3.76 µM
GI50 [10]: 2.13 µM
TGI [10]: > 20.8 µM
GI50 [11]: 0.422 µM
TGI [11]: > 100 µM
GI50 [12]: 10.9 µM
TGI [12]: > 100 µM
GI50 [13]: 2.13 µM
TGI [13]: 5.8 µM
GI50 [14]: 0.254 µM
TGI [14]: 0.781 µM
GI50 [15]: 1.81 µM
TGI [15]: > 100 µM
GI50 [16]: 2.36 µM
TGI [16]: 6.19 µM
GI50 [17]: 2.02 µM
TGI [17]: 5.47 µM
GI50 [18]: 2.32 µM
TGI [18]: 7.09 µM
GI50 [19]: 3.23 µM
TGI [19]: > 100 µM
GI50 [20]: 2.48 µM
TGI [20]: > 100 µM

COc1ccc(-c2cc(-c3cc(Cl)ccc3Cl)nc3n[nH]c(N)c23)cc1
GI50 [1]: 19.3 µM
TGI [1]: 54.1 µM
GI50 [21]: 21 µM
TGI [21]: 57.5 µM
GI50 [22]: 28.8 µM
TGI [22]: > 100 µM
GI50 [23]: 37.8 µM
TGI [23]: > 100 µM
GI50 [2]: 38.1 µM
TGI [2]: > 100 µM
GI50 [3]: 4.05 µM
TGI [3]: 24.4 µM
GI50 [4]: 31 µM
TGI [4]: 90.7 µM
GI50 [24]: 34.6 µM
TGI [24]: > 100 µM
GI50 [25]: 36 µM
TGI [25]: > 100 µM
GI50 [26]: 34.6 µM
TGI [26]: > 100 µM
GI50 [27]: 15.2 µM
TGI [27]: 34.6 µM
GI50 [5]: 6.32 µM
TGI [5]: 29.3 µM
GI50 [6]: 11.6 µM
TGI [6]: > 100 µM
GI50 [7]: 14.7 µM
TGI [7]: 84.6 µM
GI50 [8]: 22.3 µM
TGI [8]: > 100 µM
GI50 [9]: 25.3 µM
TGI [9]: 87 µM
GI50 [10]: 6.32 µM
TGI [10]: > 100 µM
GI50 [28]: 28.3 µM
TGI [28]: > 100 µM
GI50 [29]: 15.8 µM
TGI [29]: > 100 µM
GI50 [30]: 8.26 µM
TGI [30]: 83.6 µM
GI50 [31]: 20.1 µM
TGI [31]: > 100 µM
GI50 [32]: 29.5 µM
TGI [32]: > 100 µM
GI50 [33]: 46.8 µM
TGI [33]: > 100 µM
GI50 [34]: 3.45 µM
TGI [34]: > 100 µM
GI50 [35]: 34 µM
TGI [35]: > 100 µM
GI50 [36]: 2.65 µM
TGI [36]: 6.94 µM
GI50 [11]: 30.9 µM
TGI [11]: > 100 µM
GI50 [37]: 63.4 µM
TGI [37]: > 100 µM
GI50 [38]: 36.9 µM
TGI [38]: > 100 µM
GI50 [39]: 6.68 µM
TGI [39]: 39.3 µM
GI50 [40]: 17.3 µM
TGI [40]: 49.3 µM
GI50 [12]: 18 µM
TGI [12]: > 100 µM
GI50 [41]: 8.82 µM
TGI [41]: 61.9 µM
GI50 [42]: 15.6 µM
TGI [42]: > 100 µM
GI50 [43]: 58.2 µM
TGI [43]: > 100 µM
GI50 [44]: 32 µM
TGI [44]: > 100 µM
GI50 [13]: 35.9 µM
TGI [13]: > 100 µM
GI50 [45]: 22.8 µM
TGI [45]: 70.2 µM
GI50 [46]: 29.5 µM
TGI [46]: > 100 µM
GI50 [47]: 4.32 µM
TGI [47]: 24.5 µM
GI50 [48]: 6.62 µM
TGI [48]: > 100 µM
GI50 [49]: 25.2 µM
TGI [49]: 59 µM
GI50 [50]: 36.1 µM
TGI [50]: > 100 µM
GI50 [51]: 26 µM
TGI [51]: > 100 µM
GI50 [52]: 14.4 µM
TGI [52]: 34.5 µM
GI50 [53]: 34.5 µM
TGI [53]: > 100 µM
GI50 [14]: 32.7 µM
TGI [14]: > 100 µM
GI50 [54]: 31.8 µM
TGI [54]: > 100 µM
GI50 [55]: 20.9 µM
TGI [55]: > 100 µM
GI50 [15]: 10.1 µM
TGI [15]: 52.5 µM
GI50 [16]: 8.16 µM
TGI [16]: > 100 µM
GI50 [17]: 30.8 µM
TGI [17]: > 100 µM
GI50 [18]: 41.2 µM
TGI [18]: > 100 µM
GI50 [56]: 8.95 µM
TGI [56]: > 100 µM
GI50 [19]: 70.4 µM
TGI [19]: > 100 µM
GI50 [20]: 41.9 µM
TGI [20]: > 100 µM
GI50 [57]: 27.9 µM
TGI [57]: > 100 µM
